Results: PMC10707942, “Polyaromatic Bis(indolyl)methane Derivatives with Antiproliferative and Antiparasitic Activity” (Molecules, 2023)

Legend:
HT-29 cell line = tested on: HT-29 cell line; design: method as in PMID 30715794; conditions: cited from earlier work
Leishmania donovani = tested on: Leishmania donovani; design: method as in PMID 18703668, PMID 17922678; conditions: cited from earlier work
L. major = assay: Leishmanicidal activity, MTT-based assay; type: cell-based, Leishmania major; conditions: for IC50: Leishmania major, promastigotes, 72 h, MTT, error reported as σ; for Selectivity Index (SI) L. major: SI = IC50 MRC-5/IC50 L. major
Description: (§1) The biological activity of the bis(indolyl)methane derivatives 2a–c were evaluated on in vitro models of parasites (T. brucei and L. major), human cancer cells (HeLa and HT-29) and human healthy cells (MRC-5). The toxicity of the BIM derivatives was determined through alamarBlue assay (for T. brucei and MRC-5) or MTT assay (for L. major), and the results are expressed as the concentration of the compound that reduces cell viability by 50% calculated through dose-response curves to give half maximal inhibitory concentration (IC50) (see Figures S7–S11).
L. major (MHOM/IL/80/Friedlin) promastigotes were cultured at 28 °C, 5% CO2 in modified RPMI-1640 medium (Invitrogen, Carlsbad, CA, USA) supplemented with 10% hiFBS [45]. Parasites were maintained in culture in their experimental growth phase (below 2 million parasites per mL for T. brucei and 10 million parasites per mL for L. major).
The leishmanicidal activity of the compounds was determined using MTT-based assay (Sigma-Aldrich, St. Louis, MO, USA). The stock solutions of the compounds were prepared in DMSO, and the final DMSO percentage in each well was adjusted to be less than 1%. A total of 4 × 10^6 parasites per mL were incubated at 28 °C in 96-well plates (50 μL/well) alone or in the presence of an increasing concentration of compounds DMSO for 72 h. A total of 10 μL of MTT (5 mg/mL) was added to each well, and parasites were incubated for 4 h at 28 °C. Finally, cells were lysed with 50 μL/well of 20% SDS. The plate was incubated at 37 °C for an extra hour; then, the absorbance was measured with the Infinite F200 plate reader (TECAN Austria, GmbH, Grödig, Austria) at a wavelength of 540 nm. The IC50 was calculated as described above. Data are presented as the average of at least three independent measurements all conducted in triplicate.

[1] = tested on: MRC-5 cell line (human lung fibroblast); assay: Cytotoxicity in healthy cell line, alamarBlue assay; type: cell-based; conditions: MRC5, 72 h, error reported as σ
Description: as §1
MRC-5 cell line (human lung fibroblast) was grown in monolayer at 37 °C, 5% CO2 in DMEM medium (1 g/L glucose) supplemented with 10% hiFBS, 100 U/mL penicillin, […] streptomycin and 2 mM L-glutamine.
(§2) Cytotoxicity was measured in MRC-5, HeLa and HT-29 cell lines using alamarBlue® assay (ThermoFisher Scientific). The stock solutions of the compounds were prepared in DMSO, and the final DMSO percentage in each well was adjusted to be less than 1%. A total of 5 × 10^3 cells per mL (MRC-5, HeLa or HT-29 cells) were seeded in 96-well plates (100 μL/well) with 24 h of incubation time before compound addition at 37 °C, 5% CO2. Then, the compounds were added at increasing concentrations (from 0 to 100 μM), and the plates were incubated for 72 h. A total of 20 μL of resazurin solution (110 ng/mL) was added to each well, and cells were incubated for 4 h. Then, cells were lysed with 50 μL/well of 3% SDS. The plate was incubated at 37 °C for an extra hour; then, the fluorescence intensity was measured with the Infinite F200 plate reader (TECAN Austria, GmbH), exciting at 550 nm and recording the emission at 590 nm. The results are expressed as the concentration of compound that reduces cell growth by 50% versus untreated control cells (IC50). Data are presented as the average of at least three independent measurements all conducted in triplicate.

[2] = tested on: HeLa (human cervical carcinoma); assay: Cytotoxicity in cancer cell line, alamarBlue assay; type: cell-based; conditions: for IC50: Homo sapiens, HeLa, 72 h, alamarBlue, error reported as σ; for Selectivity Index (SI) HeLa: SI = IC50 MRC-5/IC50 HeLa
Description: (§3) HeLa (human cervical carcinoma) and HT-29 (human colorectal adenocarcinoma) cell lines were maintained at 37 °C, 5% CO2 in high glucose DMEM (4.5 g/L glucose) supplemented with 10% hiFBS, 100 U/mL penicillin, […] streptomycin, 2 mM L-glutamine and non-essential amino acids (1X). Cells were plated and passaged according to ATCC recommendations and were used for the experiments while in the exponential growth phase.
as §2

[3] = tested on: HT-29 (human colorectal adenocarcinoma); assay: Cytotoxicity in cancer cell line, alamarBlue assay; type: cell-based; conditions: for IC50: Homo sapiens, HT-29, 72 h, alamarBlue, error reported as σ; for Selectivity Index (SI) HT-29: SI = IC50 MRC-5/IC50 HT-29
Description: as §3, §2

T. brucei = assay: Trypanocidal activity, alamarBlue assay; type: cell-based, Trypanosoma brucei; conditions: for IC50: Trypanosoma brucei, 72 h, alamarBlue, error reported as σ; for Selectivity Index (SI) T. brucei: SI = IC50 MRC-5/IC50 T. brucei
Description: The trypanocidal activity of the compounds was assessed using the alamarBlue® assay (ThermoFisher Scientific, Waltham, MA, USA). […] Finally, cells were lysed with 50 μL per well of SDS 3%. The plate was incubated at 37 °C for an extra hour; then, the fluorescence intensity was measured with an Infinite F200 plate reader (Tecan Austria, GmbH, Grödig, Austria), exciting at 550 nm and recording the emission at 590 nm. The results are expressed as the concentration of the compound that reduces cell growth by 50% versus untreated control cells (IC50). Data are presented as the average of at least three independent measurements all conducted in triplicate.

Question: With `c1ccc2c(Cc3c[nH]c4ccccc34)c[nH]c2c1` [Arundine, 3,3-diindolylmethane] as the compound, how does the IC50 (HT-29 cell line) read?
Answer: > 100 µM

Question: What about the IC50 (Leishmania donovani) of the same compound?
Answer: 1200 nM

Question: What does the source list for `Oc1cccc2ccc(C(c3c[nH]c4ccccc34)c3c[nH]c4ccccc34)nc12` [Compound 2c]?
Answer: IC50 (L. major): 20.7 ± 1.71 µM; IC50 [1]: 3.25 ± 0.29 µM; IC50 [2]: 28.3 ± 5.01 µM; Selectivity Index (SI) HeLa [2]: 0.11; IC50 [3]: 71.4 ± 3.99 µM; Selectivity Index (SI) HT-29 [3]: 0.05; IC50 (T. brucei): 14.66 ± 0.05 µM

Question: Which IC50 (L. major) does the source give for `c1ccc(N(c2ccccc2)c2ccc(C(c3c[nH]c4ccccc34)c3c[nH]c4ccccc34)cc2)cc1` [Compound 2a] here?
Answer: 3.3 ± 0.25 µM

Question: And the “Selectivity Index (SI) L. major” value (L. major)?
Answer: 10.21

Question: And the IC50 [1]?
Answer: 33.7 ± 3.19 µM

Question: And the IC50 [2]?
Answer: 37.5 ± 1.86 µM

Question: And the “Selectivity Index (SI) HeLa” value [2]?
Answer: 0.90

Question: And the IC50 [3]?
Answer: 3.93 ± 0.49 µM

Question: What about the “Selectivity Index (SI) HT-29” value [3] of the same compound?
Answer: 8.57

Question: What about the “Selectivity Index (SI) T. brucei” value (T. brucei) of the same compound?
Answer: 10.50

Question: And the IC50 (T. brucei)?
Answer: 3.21 ± 0.04 µM

Question: Which IC50 (L. major) does the source give for `CN(C)c1ccc(C(c2c[nH]c3ccccc23)c2c[nH]c3ccccc23)c2ccccc12` [Compound 2b] here?
Answer: > 100 µM

Question: And the “Selectivity Index (SI) L. major” value (L. major)?
Answer: <0.95

Question: And the IC50 [1]?
Answer: 94.9 ± 7.27 µM

Question: And the IC50 [2]?
Answer: 89.56 ± 0.15 µM

Question: And the “Selectivity Index (SI) HeLa” value [2]?
Answer: 1.06

Question: What about the IC50 [3] of the same compound?
Answer: 25.4 ± 5.23 µM

Question: What about the “Selectivity Index (SI) HT-29” value [3] of the same compound?
Answer: 3.73

Question: And the “Selectivity Index (SI) T. brucei” value (T. brucei)?
Answer: 5.93

Question: And the IC50 (T. brucei)?
Answer: 16 ± 4.44 µM
